Data taken from US20240261333A1, “NOVEL TARGETS FOR ENHANCING ANTI-TUMOR IMMUNITY” (THE BROAD INSTITUTE, INC., priority 2021, published 2024).

Assays:
[1] = test system: A375 (NY-ESO-1+, HLA-A2+) melanoma cells; assay: T cell cytotoxicity assay (CellTiter-Glo), A375 against ESO T cells; format: cell-based, human; details: B3GNT2-overexpressing A375 pretreated with inhibitor, E:T ratio of 3, kifunensine having a stronger effect
Experimental: Expanded T cells were thawed and maintained in culture media for 8-10 h before incubation with cancer cells. Cancer cells were seeded in 96-well plates and allowed to attach for 3-4 h before T cells were added at the appropriate effector to target cell (E:T) ratio. Paired controls with no T cells added were included for each condition. After 18 h, cancer cells were washed twice with PBS to remove T cells, passaged, and cultured for 2 days. Primary patient-derived cell models were not passaged after T cell co-culture. Viability was measured using CellTiter-Glo (Promega G7571). For each E:T ratio, percent survival was calculated as viability of the cells incubated with T cells divided by viability of the paired control that was not incubated with T cells. For example, CD274-overexpressing melanoma cells that were co-cultured with ESO T cells were compared to CD274-overexpressing melanoma cells that were cultured without T cells in parallel. As an alternative cytotoxicity assay, A375 cells stably expressing Gaussia luciferase were co-cultured with ESO T cells. At each time point, 10% of cell culture media was used for the Gaussia luciferase assay (Targeting Systems GAR-2B) to directly measure cytotoxicity.
(§1) For glycosylation inhibition, cells were treated with 20 μg/mL Kifunensine (Cayman Chemical 10009437) or 2 mM Benzyl 2-acetamido-2-deoxy-alpha-D-galactopyranoside (BAG; Millipore Sigma B4894-100MG) for 48 h to inhibit N- and O-glycosylation respectively unless otherwise indicated. For MCL1 inhibition, cells were treated with 1-10 μM of S63845 (Selleck Chemicals S8383) or AZD5991 (Selleck Chemicals S8643) for 4 h before incubation with T cells. Both glycosylation and MCL1 inhibitors were maintained at indicated concentrations during co-culture with T cells.

[2] = test system: A375 cells overexpressing B3GNT2; assay: Binding of recombinant T cell proteins to A375 cells, flow cytometry; format: cell-based, human; details: B3GNT2-overexpressing A375 treated with inhibitor; CD2, 4-1BB, TREML2, NKG2D
Experimental: as §1
Per condition, 5×10^5 cells were pelleted at 200×g for 5 min and washed once with PBS. Cell were fixed in 4% Formaldehyde in PBS at 4° C. for 10 mins. Cells were washed twice with PBS and resuspended in PBS with 25 μg/mL recombinant Fc chimera proteins [PVRIG (R&D Systems 9365-PV-050), CD226 (R&D Systems 666-DN-050), NKG2D (R&D 1299-NK-050), TREML2 (R&D Systems 3259-TL-050), CD2 (R&D Systems 1856-CD-050), CD96 (R&D Systems 9360-CD-050), TIGIT (BPS Bioscience 71186), CD27 (BPS Bioscience 71176), or 4-1BB (TNFRSF9; Sino Bio 10041-H03H)], 0.1 μg/mL HLA-A2:NY-ESO-1 Fab (Stewart-Jones et al., 2009), 5 μg/mL Fas antibody (Millipore Sigma 05-201), 25 μg/mL TNFRSF10B antibody (Novus Biologicals NB100-56618, 1:200), or Dylight 649 labeled Tomato Lectin (Vector Laboratories DL-1178, 1:100). Cells were incubated at 4° C. for 1 h. Cells were washed twice with PBS and resuspended in PBS with the appropriate secondary antibody [IgG Fc PE (Thermo Fisher Scientific 12-4998-82, 1:50), His Tag Alexa Fluor 647 (Thermo Fisher Scientific MA121315A647), mouse Alexa Fluor 568 (Thermo Fisher Scientific A-11031), or rabbit Alexa Fluor 647 (Thermo Fisher Scientific A-21244)]. Cells stained with Tomato Lectin were not incubated with additional secondary antibodies. […] For each sample, 10,000 cells were analyzed on a CytoFLEX Flow Cytometer (Beckman Coulter) and quantified with FlowJo (FlowJo). For each experiment, median fluorescence values for 3 biological replicates were compared to determine statistical significance.

[3] = test system: ESO T cells co-cultured with A375 cells; assay: IFNγ ELISA in culture media of the T cell cytotoxicity assay; format: cell-based, human; details: B3GNT2-overexpressing A375 pretreated with inhibitor, E:T ratio of 3; kifunensine having a stronger effect
Experimental: Expanded T cells were thawed and maintained in culture media for 8-10 h before incubation with cancer cells. Cancer cells were seeded in 96-well plates and allowed to attach for 3-4 h before T cells were added at the appropriate effector to target cell (E:T) ratio. Paired controls with no T cells added were included for each condition. After 18 h, cancer cells were washed twice with PBS to remove T cells, passaged, and cultured for 2 days. Primary patient-derived cell models were not passaged after T cell co-culture. Viability was measured using CellTiter-Glo (Promega G7571). For each E:T ratio, percent survival was calculated as viability of the cells incubated with T cells divided by viability of the paired control that was not incubated with T cells. […]
To challenge cells with cytokines, cells were incubated with Interferon-γ (IFNγ; Cell Signaling Technology 80385S), FasL (AdipoGen AG-40B-0130-3010), TRAIL (R&D Systems 375-TL-010), or TNF-α (AdipoGen AG-40B-0019-3010) for 24 h. […] Cell viability was measured using CellTiter-Glo (Promega G7571) and protein was harvested for Western blots. […] IFNγ in the cell culture media of the T cell cytotoxic assay was quantified using an ELISA kit (Thermo Fisher Scientific KHC4021). […]

[4] = test system: A375 cells overexpressing B3GNT2; assay: Intra- and extra-cellular poly-LacNAc by tomato lectin staining, flow cytometry; format: cell-based, human; details: A375 overexpressing B3GNT2, pretreated with different concentrations of inhibitor
Experimental: as §1
Per condition, 5×10^5 cells were pelleted at 200×g for 5 min and washed once with PBS. Cell were fixed in 4% Formaldehyde in PBS at 4° C. for 10 mins. […] For each sample, 10,000 cells were analyzed on a CytoFLEX Flow Cytometer (Beckman Coulter) and quantified with FlowJo (FlowJo). For each experiment, median fluorescence values for 3 biological replicates were compared to determine statistical significance.

[5] = test system: N-glycan synthesis; details: cited from earlier work

| Molecule | Cell survival against T cell cytotoxicity [1] | Binding of recombinant T cell proteins to A375 cells [2] | T cell IFNγ secretion [3] | poly-LacNAc measured by tomato lectin staining [4] | Inhibition of N-glycan synthesis [5] |
| --- | --- | --- | --- | --- | --- |
| CC(=O)N[C@H]1[C@@H](OCc2ccccc2)O[C@H](CO)[C@H](O)[C@@H]1O [BAG, benzyl-2-acetamido-2-deoxy-α-D-galactopyranoside] | reduced A375 survival | rescued the reduction in T cell protein binding | increased T cell IFNγ secretion | reduced poly-LacNAc added by B3GNT2 in a dosage-dependent manner |  |
| tunicamycin |  |  |  |  | potent inhibitor of N-glycan synthesis |
